## CC[C@H](C)C(=O)O[C@H]1C[C@@H](C)C=C2C=C[C@H](C)[C@H](CC[C@@H]3C[C@@H](O)CC(=O)O3)[C@H]21
In 2-butanone, 285.1 K
  solubility (mole fraction): 0.00752
In 2-butanone, 288.3 K
  solubility (mole fraction): 0.00878
In 2-butanone, 291.2 K
  solubility (mole fraction): 0.00918
In 2-butanone, 294.6 K
  solubility (mole fraction): 0.0111
In 2-butanone, 297.2 K
  solubility (mole fraction): 0.0115
In 2-butanone, 300.3 K
  solubility (mole fraction): 0.0132
In 2-butanone, 303.1 K
  solubility (mole fraction): 0.0147
In 2-butanone, 306.3 K
  solubility (mole fraction): 0.0175
In 2-butanone, 309.4 K
  solubility (mole fraction): 0.0197
In 2-butanone, 312.2 K
  solubility (mole fraction): 0.0219
In acetone, 285.1 K
  solubility (mole fraction): 0.00831
In acetone, 288.3 K
  solubility (mole fraction): 0.00936
In acetone, 291.2 K
  solubility (mole fraction): 0.0104
In acetone, 294.6 K
  solubility (mole fraction): 0.0118
In acetone, 297.2 K
  solubility (mole fraction): 0.013
In acetone, 300.3 K
  solubility (mole fraction): 0.0146
In acetone, 303.1 K
  solubility (mole fraction): 0.0163
In acetone, 306.3 K
  solubility (mole fraction): 0.0183
In acetone, 309.4 K
  solubility (mole fraction): 0.0206
In acetone, 312.2 K
  solubility (mole fraction): 0.0228
In ethyl acetate, 285.1 K
  solubility (mole fraction): 0.00417
In ethyl acetate, 288.3 K
  solubility (mole fraction): 0.0047
In ethyl acetate, 291.2 K
  solubility (mole fraction): 0.00517
In ethyl acetate, 294.6 K
  solubility (mole fraction): 0.00586
In ethyl acetate, 297.2 K
  solubility (mole fraction): 0.00656
In ethyl acetate, 300.3 K
  solubility (mole fraction): 0.00706
In ethyl acetate, 303.1 K
  solubility (mole fraction): 0.00778
In ethyl acetate, 306.3 K
  solubility (mole fraction): 0.0087
In ethyl acetate, 309.4 K
  solubility (mole fraction): 0.00967
In ethyl acetate, 312.2 K
  solubility (mole fraction): 0.0108
In isobutyl acetate, 285.1 K
  solubility (mole fraction): 0.00345
In isobutyl acetate, 288.3 K
  solubility (mole fraction): 0.00383
In isobutyl acetate, 291.2 K
  solubility (mole fraction): 0.00422
In isobutyl acetate, 294.6 K
  solubility (mole fraction): 0.0047
In isobutyl acetate, 297.2 K
  solubility (mole fraction): 0.00504
In isobutyl acetate, 300.3 K
  solubility (mole fraction): 0.0057
In isobutyl acetate, 303.1 K
  solubility (mole fraction): 0.00627
In isobutyl acetate, 306.3 K
  solubility (mole fraction): 0.00702
In isobutyl acetate, 309.4 K
  solubility (mole fraction): 0.00777
In isobutyl acetate, 312.2 K
  solubility (mole fraction): 0.00864
In isopropyl acetate, 285.1 K
  solubility (mole fraction): 0.00335
In isopropyl acetate, 288.3 K
  solubility (mole fraction): 0.00372
In isopropyl acetate, 291.2 K
  solubility (mole fraction): 0.00412
In isopropyl acetate, 294.6 K
  solubility (mole fraction): 0.00459
In isopropyl acetate, 297.2 K
  solubility (mole fraction): 0.00497
In isopropyl acetate, 300.3 K
  solubility (mole fraction): 0.00553
In isopropyl acetate, 303.1 K
  solubility (mole fraction): 0.00606
In isopropyl acetate, 306.3 K
  solubility (mole fraction): 0.00677
In isopropyl acetate, 309.4 K
  solubility (mole fraction): 0.00756
In isopropyl acetate, 312.2 K
  solubility (mole fraction): 0.00832
In methyl acetate, 285.1 K
  solubility (mole fraction): 0.00309
In methyl acetate, 288.3 K
  solubility (mole fraction): 0.0034
In methyl acetate, 291.2 K
  solubility (mole fraction): 0.00376
In methyl acetate, 294.6 K
  solubility (mole fraction): 0.00417
In methyl acetate, 297.2 K
  solubility (mole fraction): 0.00447
In methyl acetate, 300.3 K
  solubility (mole fraction): 0.00515
In methyl acetate, 303.1 K
  solubility (mole fraction): 0.00543
In methyl acetate, 306.3 K
  solubility (mole fraction): 0.00619
In methyl acetate, 309.4 K
  solubility (mole fraction): 0.00674
In methyl acetate, 312.2 K
  solubility (mole fraction): 0.00746
In n-butyl acetate, 285.1 K
  solubility (mole fraction): 0.00407
In n-butyl acetate, 288.3 K
  solubility (mole fraction): 0.00452
In n-butyl acetate, 291.2 K
  solubility (mole fraction): 0.00494
In n-butyl acetate, 294.6 K
  solubility (mole fraction): 0.00557
In n-butyl acetate, 297.2 K
  solubility (mole fraction): 0.00611
In n-butyl acetate, 300.3 K
  solubility (mole fraction): 0.00679
In n-butyl acetate, 303.1 K
  solubility (mole fraction): 0.00748
In n-butyl acetate, 306.3 K
  solubility (mole fraction): 0.00836
In n-butyl acetate, 309.4 K
  solubility (mole fraction): 0.00931
In n-butyl acetate, 312.2 K
  solubility (mole fraction): 0.0103
In n-propyl acetate, 285.1 K
  solubility (mole fraction): 0.00395
In n-propyl acetate, 288.3 K
  solubility (mole fraction): 0.00438
In n-propyl acetate, 291.2 K
  solubility (mole fraction): 0.00481
In n-propyl acetate, 294.6 K
  solubility (mole fraction): 0.00544
In n-propyl acetate, 297.2 K
  solubility (mole fraction): 0.00587
In n-propyl acetate, 300.3 K
  solubility (mole fraction): 0.00658
In n-propyl acetate, 303.1 K
  solubility (mole fraction): 0.00724
In n-propyl acetate, 306.3 K
  solubility (mole fraction): 0.00803
In n-propyl acetate, 309.4 K
  solubility (mole fraction): 0.00901
In n-propyl acetate, 312.2 K
  solubility (mole fraction): 0.00997
In sec-butyl acetate, 285.1 K
  solubility (mole fraction): 0.00365
In sec-butyl acetate, 288.3 K
  solubility (mole fraction): 0.00401
In sec-butyl acetate, 291.2 K
  solubility (mole fraction): 0.00446
In sec-butyl acetate, 294.6 K
  solubility (mole fraction): 0.005
In sec-butyl acetate, 297.2 K
  solubility (mole fraction): 0.00545
In sec-butyl acetate, 300.3 K
  solubility (mole fraction): 0.00606
In sec-butyl acetate, 303.1 K
  solubility (mole fraction): 0.00666
In sec-butyl acetate, 306.3 K
  solubility (mole fraction): 0.00745
In sec-butyl acetate, 309.4 K
  solubility (mole fraction): 0.0083
In sec-butyl acetate, 312.2 K
  solubility (mole fraction): 0.00915
In tert-butyl acetate, 285.1 K
  solubility (mole fraction): 0.00275
In tert-butyl acetate, 288.3 K
  solubility (mole fraction): 0.00314
In tert-butyl acetate, 291.2 K
  solubility (mole fraction): 0.00346
In tert-butyl acetate, 294.6 K
  solubility (mole fraction): 0.00386
In tert-butyl acetate, 297.2 K
  solubility (mole fraction): 0.0042
In tert-butyl acetate, 300.3 K
  solubility (mole fraction): 0.00479
In tert-butyl acetate, 303.1 K
  solubility (mole fraction): 0.0051
In tert-butyl acetate, 306.3 K
  solubility (mole fraction): 0.00569
In tert-butyl acetate, 309.4 K
  solubility (mole fraction): 0.00638
In tert-butyl acetate, 312.2 K
  solubility (mole fraction): 0.00693

From BigSolDB 2.1
